The values that follow come from patent US20240067693A1, “POLYPEPTIDES AND USES THEREOF” (MEDIMMUNE LIMITED, priority 2020, published 2024).

Assay [1] has as its target T1, human calcitonin receptor (hCTR) (Homo sapiens, UniProt P30988).
T1 construct: expressed in transfected cells
T1 sequence (P30988 25-474): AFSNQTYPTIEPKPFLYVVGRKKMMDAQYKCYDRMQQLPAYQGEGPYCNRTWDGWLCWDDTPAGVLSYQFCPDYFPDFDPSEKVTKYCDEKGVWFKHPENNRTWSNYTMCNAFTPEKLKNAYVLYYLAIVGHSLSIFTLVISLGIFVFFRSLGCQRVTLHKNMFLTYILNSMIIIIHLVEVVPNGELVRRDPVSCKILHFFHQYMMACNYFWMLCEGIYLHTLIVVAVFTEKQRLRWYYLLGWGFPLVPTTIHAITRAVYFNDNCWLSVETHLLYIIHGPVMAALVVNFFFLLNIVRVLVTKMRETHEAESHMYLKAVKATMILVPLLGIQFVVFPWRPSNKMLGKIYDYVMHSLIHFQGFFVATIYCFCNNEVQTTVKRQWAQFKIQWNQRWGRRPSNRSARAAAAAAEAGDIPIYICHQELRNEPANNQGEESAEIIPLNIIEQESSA
The assay is described as follows: cAMP production in 1321N1 cells with stable recombinant expression of human calcitonin receptor (hCTR). Type of assay: cell-based. As to conditions: cAMP, 1321N1 cells, assay buffer with 0.1% BSA; read-out: EC50 (pM) hCTR. In short, it runs like this: (§1)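 Receptor-expressing cells (human receptors in 1321N1, rat receptors in HEK) incubated 30 min at room temperature with peptide in HBSS/HEPES pH 7.4, 0.1% BSA, 0.5 mM IBMX. cAMP read by HTRF; EC50 from 4-parameter fit as % of maximal amylin or calcitonin response.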
A general note: Cyclic AMP is a second messenger, typically raised through Gs and lowered through Gi signalling.

Assay [2] has as its target T2, human amylin receptor (calcitonin receptor co-expressed with receptor activity modifying protein, RAMP3) (hAMYR3) (Homo sapiens, UniProt O60896+P30988).
T2 construct: expressed in transfected cells
T2 sequence (P30988 25-474): T1 sequence (P30988 25-474)
T2 sequence (O60896 24-148 partner): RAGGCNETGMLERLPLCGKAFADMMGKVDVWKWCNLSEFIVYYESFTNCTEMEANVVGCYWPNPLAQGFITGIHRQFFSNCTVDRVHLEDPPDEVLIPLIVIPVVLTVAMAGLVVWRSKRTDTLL
The assay is described as follows: cAMP production in 1321N1 cells with stable recombinant expression of human amylin receptor (hAMYR3). Type of assay: cell-based. As to conditions: for Ratio (selectivity hAMYR vs hCTR, ratio of EC50 values at the two receptors): EC50 hCTR / EC50 hAMYR3; for EC50: cAMP, 1321N1 cells, assay buffer with 0.1% BSA, read-out: EC50 (pM) hAMYR3. In short, it runs like this:
as §1

As usually defined, the EC50 is the concentration needed to bring the measured effect to its halfway point.

Numbered stars: 1 amine (or outer) side, 2 acyl side, 3 side chain; on linkers, the order of the positions; unused ones are H or OH. Bridge positions count the residues as written; N and C are the ends. Square brackets hold non-standard residues; d marks the D form. Side chains are listed from the residue outwards. Peptide text beside a SMILES is read from it. * marks the point of attachment. C20 diacid = O=C(O)CCCCCCCCCCCCCCCCCCC(=O)*; C18 diacid = O=C(O)CCCCCCCCCCCCCCCCC(=O)*; γGlu = O=C(O)[C@H](CCC(=O)[*:2])N[*:1]; αMeF = C[C@](N)(Cc1ccccc1)C(=O)O; Dab = NCC[C@H](N)C(=O)O; Aib = CC(C)(N)C(=O)O

`CC[C@H](C)[C@H](NC(=O)[C@@H]1CCCN1C(=O)CNC(=O)[C@H](Cc1ccccc1)NC(=O)[C@H](CC(N)=O)NC(=O)[C@H](CO)NC(=O)[C@H](CO)NC(=O)[C@H](CO)NC(=O)[C@H](Cc1c[nH]cn1)NC(=O)C(C)(C)NC(=O)[C@H](CC(C)C)NC(=O)[C@H](Cc1ccccc1)NC(=O)[C@H](CC(N)=O)NC(=O)[C@H](C)NC(=O)[C@H](CC(C)C)NC(=O)[C@H](CCCNC(=N)N)NC(=O)[C@H](CCC(N)=O)NC(=O)[C@@H](NC(=O)[C@H](C)NC(=O)[C@@H]1CSSC[C@H](NC(=O)[C@H](CCCCN)NC(=O)[C@@H](N)CCCCNC(=O)CC[C@H](NC(=O)CCCCCCCCCCCCCCCCC(=O)O)C(=O)O)C(=O)N[C@@H](CC(N)=O)C(=O)N[C@@H]([C@@H](C)O)C(=O)N[C@@H](C)C(=O)N[C@@H]([C@@H](C)O)C(=O)N1)[C@@H](C)O)C(=O)N[C@@H](CC(C)C)C(=O)N1CCC[C@H]1C(=O)N1CCC[C@H]1C(=O)N[C@H](C(=O)N[C@@H](CC(N)=O)C(=O)N[C@H](C(=O)NCC(=O)N[C@@H](CO)C(=O)N[C@@H](CC(N)=O)C(=O)N[C@H](C(=O)N[C@@H](Cc1ccc(O)cc1)C(N)=O)[C@@H](C)O)C(C)C)[C@@H](C)O` [Peptide 133] (H-K([γGlu-C18 diacid])KCNTATCATQRLANFL[Aib]HSSSNFGPILPPTNVGSNTY-NH2; disulfide 3-8; N-terminus assumed): the values for the EC50 in assay [1] and in assay [2] were 2580 pM and 378 pM, respectively. Besides, in assay [2], the “Ratio (selectivity hAMYR vs hCTR, ratio of EC50 values at the two receptors)” value is 6.8.

As for `CC[C@H](C)[C@H](NC(=O)[C@@H]1CCCN1C(=O)CNC(=O)[C@H](Cc1ccccc1)NC(=O)[C@H](CC(N)=O)NC(=O)C(C)(C)NC(=O)[C@H](CO)NC(=O)[C@H](CO)NC(=O)[C@H](Cc1c[nH]cn1)NC(=O)[C@H](CO)NC(=O)[C@H](CC(C)C)NC(=O)[C@H](Cc1ccccc1)NC(=O)[C@H](CC(N)=O)NC(=O)[C@H](C)NC(=O)[C@H](CC(C)C)NC(=O)[C@H](CCCNC(=N)N)NC(=O)[C@H](CCC(N)=O)NC(=O)[C@@H](NC(=O)[C@H](C)NC(=O)[C@@H]1CSSC[C@H](NC(=O)[C@H](CCCCN)NC(=O)[C@@H](N)CCCCNC(=O)CC[C@H](NC(=O)CCCCCCCCCCCCCCCCC(=O)O)C(=O)O)C(=O)N[C@@H](CC(N)=O)C(=O)N[C@@H]([C@@H](C)O)C(=O)N[C@@H](C)C(=O)N[C@@H]([C@@H](C)O)C(=O)N1)[C@@H](C)O)C(=O)N[C@@H](CC(C)C)C(=O)N1CCC[C@H]1C(=O)N1CCC[C@H]1C(=O)N[C@H](C(=O)N[C@@H](CC(N)=O)C(=O)N[C@H](C(=O)NCC(=O)N[C@@H](CO)C(=O)N1CCC[C@H]1C(=O)N[C@H](C(=O)N[C@@H](Cc1ccc(O)cc1)C(N)=O)[C@@H](C)O)C(C)C)[C@@H](C)O` [Peptide 55, K(γE-C18diacid)K[CNTATC]ATQRLANFLSHSS(Aib)NFGPILPPTNVGSPTY-amide] (H-K([γGlu-C18 diacid])KCNTATCATQRLANFLSHSS[Aib]NFGPILPPTNVGSPTY-NH2; disulfide 3-8), in assay [1], the EC50 was found to be 1870 pM. In addition, in assay [2], the “Ratio (selectivity hAMYR vs hCTR, ratio of EC50 values at the two receptors)” value turned out to be 3 and the EC50 turned out to be 678 pM.

Regarding `CC[C@H](C)[C@H](NC(=O)[C@@H]1CCCN1C(=O)CNC(=O)[C@](C)(Cc1ccccc1)NC(=O)[C@H](CC(N)=O)NC(=O)[C@H](CC(N)=O)NC(=O)[C@H](CO)NC(=O)[C@H](CO)NC(=O)[C@H](Cc1c[nH]cn1)NC(=O)C(C)(C)NC(=O)[C@H](CC(C)C)NC(=O)[C@H](Cc1ccccc1)NC(=O)[C@H](CC(N)=O)NC(=O)[C@H](C)NC(=O)[C@H](CC(C)C)NC(=O)[C@H](CCCNC(=N)N)NC(=O)[C@H](CCC(N)=O)NC(=O)[C@@H](NC(=O)[C@H](C)NC(=O)[C@@H]1CSSC[C@H](NC(=O)[C@@H](N)CCCCNC(=O)CC[C@H](NC(=O)CC[C@H](NC(=O)CCCCCCCCCCCCCCCCC(=O)O)C(=O)O)C(=O)O)C(=O)N[C@@H](CC(N)=O)C(=O)N[C@@H]([C@@H](C)O)C(=O)N[C@@H](C)C(=O)N[C@@H]([C@@H](C)O)C(=O)N1)[C@@H](C)O)C(=O)N[C@@H](CC(C)C)C(=O)N1CCC[C@H]1C(=O)N1CCC[C@H]1C(=O)N[C@H](C(=O)N[C@@H](CC(N)=O)C(=O)N[C@H](C(=O)NCC(=O)N[C@@H](CO)C(=O)N[C@@H](CC(N)=O)C(=O)N[C@H](C(=O)N[C@@H](Cc1ccc(O)cc1)C(N)=O)[C@@H](C)O)C(C)C)[C@@H](C)O` [Peptide 26, K(γE-γE-C18diacid)[CNTATC]ATQRLANFL(Aib)HSSNN(αMePhe)GPILPPTNVGSNTY-amide] (H-K([γGlu-γGlu-C18 diacid])CNTATCATQRLANFL[Aib]HSSNN[αMeF]GPILPPTNVGSNTY-NH2; disulfide 2-7), the values for the EC50 in assay [1] and in assay [2] were 2800 pM and 409 pM, respectively. The “Ratio (selectivity hAMYR vs hCTR, ratio of EC50 values at the two receptors)” value in assay [2] turned out to be 7.

On to `CC[C@H](C)[C@H](NC(=O)[C@@H]1CCCN1C(=O)CNC(=O)[C@H](Cc1ccccc1)NC(=O)[C@H](CC(N)=O)NC(=O)[C@@H]1CCCN1C(=O)[C@H](CO)NC(=O)[C@H](CO)NC(=O)[C@H](Cc1c[nH]cn1)NC(=O)C(C)(C)NC(=O)[C@H](CC(C)C)NC(=O)[C@H](Cc1ccccc1)NC(=O)[C@H](CC(N)=O)NC(=O)[C@H](C)NC(=O)[C@H](CC(C)C)NC(=O)[C@H](CCCNC(=N)N)NC(=O)[C@H](CCC(N)=O)NC(=O)[C@@H](NC(=O)[C@H](C)NC(=O)[C@@H]1CSSC[C@H](NC(=O)[C@H](CCCCN)NC(=O)[C@@H](N)CCCCNC(=O)CC[C@H](NC(=O)CCCCCCCCCCCCCCCCC(=O)O)C(=O)O)C(=O)N[C@@H](CC(N)=O)C(=O)N[C@@H]([C@@H](C)O)C(=O)N[C@@H](C)C(=O)N[C@@H]([C@@H](C)O)C(=O)N1)[C@@H](C)O)C(=O)N[C@@H](CC(C)C)C(=O)N1CCC[C@H]1C(=O)N1CCC[C@H]1C(=O)N[C@H](C(=O)N[C@@H](CC(N)=O)C(=O)N[C@H](C(=O)NCC(=O)N[C@@H](CO)C(=O)N[C@@H](CCC(=O)O)C(=O)N[C@H](C(=O)N[C@@H](Cc1ccc(O)cc1)C(N)=O)[C@@H](C)O)C(C)C)[C@@H](C)O` [Peptide 139] (H-K([γGlu-C18 diacid])KCNTATCATQRLANFL[Aib]HSSPNFGPILPPTNVGSETY-NH2; disulfide 3-8; N-terminus assumed), for which the EC50 in assay [1] came to 1040 pM. Also, in assay [2], the “Ratio (selectivity hAMYR vs hCTR, ratio of EC50 values at the two receptors)” value amounted to 3.7 and the EC50 amounted to 285 pM.

Turning to `CC[C@H](C)[C@H](NC(=O)[C@H](C)NC(=O)[C@@H]1CCCN1C(=O)[C@H](Cc1ccccc1)NC(=O)[C@H](CC(N)=O)NC(=O)C(C)(C)NC(=O)[C@H](CO)NC(=O)[C@H](CO)NC(=O)[C@H](Cc1c[nH]cn1)NC(=O)[C@@H](NC(=O)[C@H](CC(C)C)NC(=O)[C@H](Cc1ccccc1)NC(=O)[C@H](CC(N)=O)NC(=O)[C@H](C)NC(=O)[C@H](CC(C)C)NC(=O)[C@H](CCCNC(=N)N)NC(=O)[C@H](CCC(N)=O)NC(=O)[C@@H](NC(=O)[C@H](C)NC(=O)[C@@H]1CSSC[C@H](NC(=O)[C@@H](N)CCCCNC(=O)CC[C@H](NC(=O)CC[C@H](NC(=O)CCCCCCCCCCCCCCCCCCC(=O)O)C(=O)O)C(=O)O)C(=O)N[C@@H](CC(N)=O)C(=O)N[C@@H]([C@@H](C)O)C(=O)N[C@@H](C)C(=O)N[C@@H]([C@@H](C)O)C(=O)N1)[C@@H](C)O)C(C)C)C(=O)N[C@@H](CC(C)C)C(=O)N[C@@H](CO)C(=O)N1CCC[C@H]1C(=O)N[C@H](C(=O)N[C@@H](CCN)C(=O)N[C@H](C(=O)NCC(=O)N[C@@H](CO)C(=O)N[C@@H](CC(N)=O)C(=O)N[C@H](C(=O)N[C@@H](Cc1ccc(O)cc1)C(N)=O)[C@@H](C)O)C(C)C)[C@@H](C)O` [Peptide 123, K(γE-γE-C20diacid)[CNTATC]ATQRLANFLVHSS(Aib)NFPAILSPT(Dab)VGSNTY-amide] (H-K([γGlu-γGlu-C20 diacid])CNTATCATQRLANFLVHSS[Aib]NFPAILSPT[Dab]VGSNTY-NH2; disulfide 2-7; N-terminus assumed), in assay [1], the EC50 came out at 4790 pM. For the same compound, in assay [2], the “Ratio (selectivity hAMYR vs hCTR, ratio of EC50 values at the two receptors)” value was found to be 5 and the EC50 was 873 pM.
